One series relates to A549. In words: Cytotoxicity against human A549 cells after 3 days by SRB assay. The format is functional, cell-based.
The subject of another series is MCF7. Kind of series: Cytotoxicity against human MCF7 cells after 3 days by SRB assay. It is filed as functional, cell-based. (Sulforhodamine B stains cellular protein and so reports cell mass.)
Series [1] relates to Human immunodeficiency virus. Kind of series: Antiviral activity against HIV infected in human H9 cells. The conditions noted are these: Human immunodeficiency virus 1, H9. It is filed as functional, organism-based.
Series [2] is described as follows: Therapeutic index, ratio of IC50 for human H9 cells to EC50 for HIV. The format is cell-based. The conditions noted are these: read-out: Ratio IC50/EC50.
For a further series, the system named is H9. Kind of series: Cytotoxicity against human H9 cells. It is filed as cell-based.

Converted amounts (≈) assume the structure as drawn. The source made the active and inactive calls. No cut-off for these calls is given here.

Regarding `COc1cc(/C=C/C(=O)NCCc2ccc(O[C@@H]3O[C@H](CO)[C@@H](O)[C@H](O)[C@H]3O)c(OC)c2)ccc1O[C@@H]1O[C@H](CO)[C@@H](O)[C@H](O)[C@H]1O`, the result in the series with A549 and in the series on MCF7 was inactive.

Turning to `O=C(O)c1cc2c(c3c1ccc1ccccc13)OCO2`, the outcome in the series with A549 and in the series on MCF7 was inactive.

In the case of `CC1=C2OC(C)(C)c3c(O)cc(C)c(c32)C(=O)C1=O` [DEHYDROOXOPEREZINONE], the result with A549 and with MCF7 was inactive. The same compound came in with a concentration giving a half-maximal response (EC50) in series [1] of 17.5 µg/mL (≈ 67.8 µM). In series [2], the selectivity ratio was found to be 1.43. This compound registered a half-inhibitory concentration (IC50) in the series with H9 of 25.1 µg/mL (≈ 97.2 µM).

The term EC50 denotes the concentration needed to bring the measured effect to its halfway point. Usually IC50 stands for the point on the concentration scale where inhibition reaches its midpoint. A lower IC50 goes with higher potency.
